Measurements published in ChEMBL document CHEMBL1147805, “A new non-azole inhibitor of ABA 8'-hydroxylase: effect of the hydroxyl group substituted for geminal methyl groups in the six-membered ring” (Bioorg Med Chem Lett, 2006).
Activity calls are given as the source filed them. The rule behind the calls is not given here.

Legend:
[1] = biological target: T1, Abscisic acid 8'-hydroxylase 3 (Arabidopsis thaliana, UniProt Q9FH76); assay: Inhibition of Arabidopsis recombinant CYP707A3
T1 sequence (Q9FH76 whole entry): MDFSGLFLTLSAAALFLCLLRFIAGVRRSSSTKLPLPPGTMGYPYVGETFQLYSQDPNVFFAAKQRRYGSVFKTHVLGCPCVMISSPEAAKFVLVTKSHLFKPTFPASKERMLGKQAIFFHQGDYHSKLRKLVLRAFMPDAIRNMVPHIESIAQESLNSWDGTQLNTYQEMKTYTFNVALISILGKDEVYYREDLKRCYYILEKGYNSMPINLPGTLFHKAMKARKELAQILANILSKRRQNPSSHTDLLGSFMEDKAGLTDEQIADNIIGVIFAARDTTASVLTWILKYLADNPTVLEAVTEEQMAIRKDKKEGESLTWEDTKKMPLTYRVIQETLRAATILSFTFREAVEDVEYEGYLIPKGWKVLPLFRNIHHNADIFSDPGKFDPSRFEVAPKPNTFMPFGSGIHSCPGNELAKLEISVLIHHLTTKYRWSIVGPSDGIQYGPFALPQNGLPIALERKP

Radish = assay: Induction of drought-stress tolerance in radish seedlings at 400 uM; assay type: functional, organism-based; conditions: Raphanus sativus
[2] = biological target: T1, Abscisic acid 8'-hydroxylase 3; assay: Activity against CYP707A3 by rice seedling elongation assay at 30 uM; assay type: functional; conditions: oryza sativa
[3] = biological target: T1, Abscisic acid 8'-hydroxylase 3; assay: Activity against CYP707A3 by rice seedling elongation assay at 1 uM; assay type: functional; conditions: oryza sativa

Ki [1]	Activity [2]	Activity [3]	Compound	Activity (Radish)
1400 nM			C[C@H]1CCCC(C)(C)[C@@]1(O)/C=C/C=C\C(=O)O	
			C[C@@H]1CCC[C@H](O)[C@@]1(O)/C=C/C=C\C(=O)O (racemic)	inactive
140 nM	96%		C[C@H]1CCC[C@H](O)[C@@]1(O)/C=C/C=C\C(=O)O	Active
		22%	CC1=CC(=O)CC(C)(C)C1(O)/C=C/C(C)=C\C(=O)O (stereo unspecified) [ABSCISIC ACID]	
